Laboratory results from BindingDB's records for doi:10.7270/Q2BR8QM3 (Nmmlsc, 2008).
Structures can show the parent of a compound that is named as a salt.

Biological target: T1, Bcl-2-like protein 2 (Homo sapiens, UniProt Q92843)
T1 sequence (Q92843 whole entry): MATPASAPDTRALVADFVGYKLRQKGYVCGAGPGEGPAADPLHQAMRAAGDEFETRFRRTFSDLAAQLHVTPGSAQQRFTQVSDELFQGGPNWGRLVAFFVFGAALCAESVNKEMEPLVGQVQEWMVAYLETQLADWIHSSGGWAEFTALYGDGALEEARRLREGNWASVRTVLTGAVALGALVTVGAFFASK
Assay: Bcl-W/Bim binding regulators – biochemical, multiplexed, bead-based flow cytometry, fluorescence, dose response (AID 1330)

[1] = inactive by the depositor's call

Structure (SMILES)	EC50 [1] [µM]	EC50 [µM]
Cc1ccc(C(=O)/C=C/c2ccc(-c3ccc(C)cc3)o2)cc1 [1-p-Tolyl-3-(5-p-tolyl-furan-2-yl)-propenone]	1.02	–
O=C(NC1=C(Nc2ccc(Cl)cc2)C(=O)c2ccccc2C1=O)c1ccccc1	10.1	–
CCOC(=O)c1c(NC(C)=O)sc2c(O)c(Br)cc(Br)c12	40.3	–
CCN(CC)S(=O)(=O)c1cccc(C(=O)NN=Cc2ccc(O)c(O)c2O)c1	–	5.13
CCN(CC)c1ccc(Nc2nc(N3CCOCC3)c3ccccc3n2)cc1 [4-N,4-N-diethyl-1-N-(4-morpholin-4-ylquinazolin-2-yl)benzene-1,4-diamine]	4.71	–
CN(N=Cc1ccncc1)C1=NS(=O)(=O)c2ccccc21 [isonicotinaldehyde (1,1-dioxido-1,2-benzisothiazol-3-yl)(methyl)hydrazone]	2.73	–
O=C(/C=C/c1ccc(-c2ccccc2)o1)c1ccccc1 [(E)-1-phenyl-3-(5-phenyl-2-furanyl)-2-propen-1-one]	13.9	–
COCCNC(=S)Nc1cc(OC)c(OC)cc1C#N [1-(2-cyano-4,5-dimethoxy-phenyl)-3-(2-methoxyethyl)thiourea]	14.5	–
Cc1cc(OCc2cn3cccnc3n2)ccc1Cl [2-[(4-chloranyl-3-methyl-phenoxy)methyl]imidazo[1,2-a]pyrimidine]	19.8	–
Cc1cccc(C(=O)/N=c2\c(C#N)cc3c(=O)n4cccc(C)c4nc3n2Cc2ccco2)c1 [N-[3-cyano-1-(furan-2-ylmethyl)-10-methyl-5-oxodipyrido[3,4-c:1',2'-f]pyrimidin-2-ylidene]-3-methylbenzamide]	41.3	–
O=C(NCc1ccccc1)c1ccc2nc(-c3ccco3)c(-c3ccco3)nc2c1 [2,3-bis(furan-2-yl)-N-(phenylmethyl)quinoxaline-6-carboxamide]	–	6.03
Cc1ccnc(Nc2nc(-c3c(C)nc4sccn34)cs2)c1 [[4-(6-Methyl-imidazo[2,1-b]thiazol-5-yl)-thiazol-2-yl]-(4-methyl-pyridin-2-yl)-amine]	15.7	–
COCCCn1c(N)c(C(=O)Nc2sc3c(c2C(=O)OC)CCCC3)c2nc3ccccc3nc21 [MLS000595323]	2.34	–
COc1cc(C2Nc3cccc4cccc(c34)N2)ccc1OC(C)=O [Acetic acid 4-(2,3-dihydro-1H-perimidin-2-yl)-2-methoxy-phenyl ester]	11.5	–
Cc1ccc(CNc2ccc3c(c2)OCO3)c(C)c1 [1,3-benzodioxol-5-yl(2,4-dimethylbenzyl)amine]	44.2	–
O=C(Nc1ccc2nc(-c3ccco3)c(-c3ccco3)nc2c1)N1CCN(c2ccccn2)CC1	14.9	–
CCN1C(=O)/C(=C/C=C2\C=CN(CC)c3ccccc32)SC1=S	15.9	–
CC(=O)c1ccc(NC(=O)c2ccc3nc(-c4ccco4)c(-c4ccco4)nc3c2)cc1 [N-(4-acetylphenyl)-2,3-di-2-furyl-6-quinoxalinecarboxamide]	3.97	–
COc1cc2nc(=S)n(CCCN3CCOCC3)c(N)c2cc1OC	9.25	–
Cc1ccc(C)c(/C=C/C(=O)c2ccccc(=O)c2O)c1	8.51	–
COc1ccc(CC(=O)Nc2ccc(-c3nc4cc(C)ccc4o3)c(O)c2)cc1OC [2-(3,4-dimethoxyphenyl)-N-[(4Z)-3-keto-4-(5-methyl-3H-1,3-benzoxazol-2-ylidene)cyclohexa-1,5-dien-1-yl]acetamide]	–	10.1
CCc1ccc(/C=C/C(=O)c2cc(Br)ccc(=O)c2O)cc1 [5-bromo-3-[(E)-3-(4-ethylphenyl)-1-oxoprop-2-enyl]-2-hydroxy-1-cyclohepta-2,4,6-trienone]	52.1	–

Structure (SMILES)	EC50 [1] [µM]	EC50 [µM]
CCOC(=O)c1ccc(Nc2nc(C(=O)OCC)nc3ccccc23)cc1	2.67	–
COc1cc(C2Nc3cccc4cccc(c34)N2)cc(OC)c1O [4-(2,3-dihydro-1H-perimidin-2-yl)-2,6-dimethoxyphenol]	–	3.25
COc1ccc2nc(-c3ccco3)c(-c3ccco3)nc2c1 [2,3-di-2-furyl-6-methoxyquinoxaline]	28.3	–
COc1ccc(CCNC(=O)c2ccc3nc(-c4ccco4)c(-c4ccco4)nc3c2)cc1OC [N-[2-(3,4-dimethoxyphenyl)ethyl]-2,3-di-2-furylquinoxaline-6-carboxamide]	12.2	–
CN1CCc2cccc3c2[C@@H]1Cc1ccc(O)c(O)c1-3	–	9.95
COc1cc2nc(=S)[nH]c(NCC3CCCO3)c2cc1OC (configuration not stated) [6,7-dimethoxy-4-(2-oxolanylmethylamino)-1H-quinazoline-2-thione]	4.62	–
COc1cccc(CN=Nc2nn3cnnc3c3ccccc23)c1O	–	0.49
O=C(CSc1ccc2nnc(-c3ccccn3)n2n1)Nc1nccs1 [2-[[3-(2-pyridinyl)-[1,2,4]triazolo[4,3-b]pyridazin-6-yl]thio]-N-(2-thiazolyl)acetamide]	14.1	–
CCOCCCNc1nc(S)nc2cc(OC)c(OC)cc12	2.2	–
Cc1ccc(-c2ccc(/C=C/C(=O)c3ccccc3)o2)cc1	3.56	–
COc1cc(C=NNC(=O)CN(Cc2ccco2)S(=O)(=O)c2ccccc2)ccc1O [N-(2-furanylmethyl)-N-[2-[[(E)-(3-methoxy-4-oxo-1-cyclohexa-2,5-dienylidene)methyl]hydrazo]-2-oxoethyl]benzenesulfonamide]	–	15.3
Cc1nc2ncccn2c1-c1csc(Nc2ccccc2)n1 [4-(2-methyl-3-imidazo[1,2-a]pyrimidinyl)-N-phenyl-2-thiazolamine]	8.71	–
COc1cc(CNc2ccc3[nH]c(=O)[nH]c3c2)cc(Br)c1OCC(=O)NC(C)(C)C [2-[2-bromo-6-methoxy-4-[[(2-oxo-1,3-dihydrobenzimidazol-5-yl)amino]methyl]phenoxy]-N-tert-butylacetamide]	1.47	–
CCOCCCn1c(N)c(C(=O)Nc2sc3c(c2C(=O)OC)CCCC3)c2nc3ccccc3nc21	1.8	–
O=S1(=O)N=C(N(CCO)N=C/C=C/c2ccccc2)c2ccccc21	20.6	–
COc1cccc2c(SCC(=O)NN=Cc3ccc(O)cc3O)cc(C)nc12 [N'-[(E)-(2-hydroxy-4-oxo-1-cyclohexa-2,5-dienylidene)methyl]-2-[(8-methoxy-2-methyl-4-quinolinyl)thio]acetohydrazide]	–	55.2
COCCN=c1scc(-c2ccco2)n1N=Cc1ccc(O)c(O)c1O	–	1.81
CN1CCc2cccc3c2[C@H]1Cc1ccc(O)c(O)c1-3 [APOMORPHINE HYDROCHLORIDE]	–	19
Cc1ccc(-c2cc(-c3ccc(C)o3)nc(N)c2C#N)cc1 [2-amino-6-(5-methylfuran-2-yl)-4-(4-methylphenyl)pyridine-3-carbonitrile]	18.5	–
O=C(c1ccccc1)c1ccc2nc(-c3ccco3)c(-c3ccco3)nc2c1	14.8	–
CC(=O)NC1=C(NC2CCS(=O)(=O)C2)C(=O)c2ccccc2C1=O (configuration not stated) [N-[3-[(1,1-dioxothiolan-3-yl)amino]-1,4-dioxonaphthalen-2-yl]acetamide]	3.49	–

Now from value to compound:

EC50 [1] [µM]	EC50 [µM]	Structure (SMILES)
–	42.4	CNCc1ccccc1Sc1ccc(O)c(O)c1 [SMR000230497]
31.8	–	Nc1c(C(=O)NCc2ccco2)sc2nc3c(cc12)C(=O)CCC3 [SMR000072940]
–	8.37	O=C1c2ccccc2-c2onc3ccc(NCc4ccco4)c1c23 [MLS000080234]
10.9	–	O=C1c2ccccc2-c2onc3ccc(N4CCCC4)c1c23 [SMR000279741]
–	3.52	O=[N+]([O-])c1ccc(N=NCc2ccc(O)c(O)c2O)c(S(=O)(=O)N2CCOCC2)c1 [MLS000336720]
11.2	–	O=C(NCCO)c1ccc2nc(-c3ccco3)c(-c3ccco3)nc2c1 [SMR000121771]
13.6	–	Cc1cc2n(c1)CCn1c(C)ccc1-2 [MLS000104384]
–	9.02	O=C(Nc1cccc(C(F)(F)F)c1)c1ccc2nc(-c3ccco3)c(-c3ccco3)nc2c1 [SMR000142217]
3.68	–	COCCCNc1nc(S)nc2cc(OC)c(OC)cc12 [SMR000026607]
1.59	–	O=C(Nc1cccc(Cl)c1)Nc1ccnc(-c2cccnc2)n1 [SMR000337179]
6.13	–	CCOc1cccc(CNc2ccc(O)cc2)c1OCc1ccccc1Cl [MLS000580486]
–	4.93	CCOC(=O)C1CCN(C(=O)Nc2ccc3nc(-c4ccco4)c(-c4ccco4)nc3c2)CC1 [MLS000113285]
18.5	–	Clc1nc(NCc2cccnc2)nc(N2CCOCC2)n1 [MLS000121154]
31.7	–	CCOc1cc(C2Nc3cccc4cccc(c34)N2)ccc1O [MLS000068595]
15.7	–	Nc1ccc(C2=Nc3cccc4cccc(c34)N2)cc1 [SMR000175908]
9.76	–	Fc1ccc(C2=Nc3cccc4cccc(c34)N2)cc1 [MLS000687139]
29.6	–	CSc1nnc2c3cc(C)ccc3n(Cc3ccccc3)c2n1 [SMR000046397]
–	7.89	Cc1nnc2ccc(-c3cccc(NC(=O)c4ccco4)c3)nn12 [SMR000324305]
0.67	–	COc1cc2nc(=S)[nH]c(NCCc3ccc(S(N)(=O)=O)cc3)c2cc1OC [MLS000674601]
–	4.76	O=C1C=CC(C=NNC(=O)C(=Cc2ccc([N+](=O)[O-])cc2)NC(=O)c2ccccc2)C(O)=C1O (configuration not stated) [MLS000530401]
–	5.05	CN=c1scc(-c2cccs2)n1N=Cc1ccc(O)c(O)c1O [SMR000242177]
–	16.6	OCCN1CCN(CCCc2c3c(cc4c2CCC4)CCC3)CC1 [MLS000698424]
2.98	–	Oc1ccc(NCc2ccccc2OCc2ccccc2)cc1 [SMR000231540]
17.3	–	CN(N=Cc1cccnc1)C1=NS(=O)(=O)c2ccccc21 [SMR000207578]
1.31	–	COC(=O)c1c(C(=O)OC)c2cccc3cc(-c4ccccc4)c4ccc1c4n32 [SMR000161417]
34	–	COC(=O)CSc1ncnc2c1sc1nc(-c3ccco3)c3c(c12)CC(C)(C)OC3 [MLS000039339]
24.2	–	COc1ccc(C)cc1-n1c(=O)c2ccccc2c2ccccc2c1=O [MLS000682999]
16.4	–	O=C(Nc1ccc2nc(-c3ccco3)c(-c3ccco3)nc2c1)NC1CC1 [SMR000118524]
27.5	–	COc1ccc(/C=C/C(=O)c2cc(Br)ccc(=O)c2O)cc1 [MLS000702099]
